Drawing on US20250206730A1 (AUTOTELIC BIO INC., priority 2022, published 2025), this text covers IC50 for 28 compounds.

In one assay the target is T1, ALK5 kinase (Homo sapiens, UniProt P36897).
T1 sequence (P36897 34-503): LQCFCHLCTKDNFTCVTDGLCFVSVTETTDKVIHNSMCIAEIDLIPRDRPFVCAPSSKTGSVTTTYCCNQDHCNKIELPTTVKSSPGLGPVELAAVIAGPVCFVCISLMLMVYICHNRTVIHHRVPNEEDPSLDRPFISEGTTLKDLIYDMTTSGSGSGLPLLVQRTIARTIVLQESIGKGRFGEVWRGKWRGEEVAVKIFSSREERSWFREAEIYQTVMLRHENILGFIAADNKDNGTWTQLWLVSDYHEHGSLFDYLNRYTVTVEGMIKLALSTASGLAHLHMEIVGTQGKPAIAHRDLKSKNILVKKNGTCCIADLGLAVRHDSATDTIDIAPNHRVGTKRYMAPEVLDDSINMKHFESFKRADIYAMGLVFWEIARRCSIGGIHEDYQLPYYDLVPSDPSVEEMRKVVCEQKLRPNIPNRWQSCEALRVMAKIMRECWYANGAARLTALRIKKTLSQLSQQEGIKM
Briefly: LanthaScreen Eu Kinase Binding Assay. As to conditions: Kinase Tracer 178, Eu-anti-GST Antibody, read-out: IC50 Enzyme. Here is the method: [Example 1] LanthaScreen Eu Kinase Binding Assay
4 μL of 4× Test Compound in 4% DMSO and 4 μL of 4× Kinase in Kinase buffer were added to wells (low volume, white 384-well plate (Greiner Cat. #784207)). The plate was shaken for 30 seconds, centrifuged for 10 seconds at 1000 rpm, and incubated at RT for 30 minutes. Then, 4 μL of 4× Eu-anti-GST Antibody and 4 μL of 4× Kinase Tracer 178 were added to the wells. The plate was shaken for 30 seconds, centrifuged for 10 seconds at 1000 rpm, and incubated at RT for 60 minutes. Fluorescence was measured by a plate reader, Biotek Synergy H1 (Vermont, USA) under the following conditions. • Excitation: 340 nm (3 nm bandpass) • Kinase tracer emission: 665 nm (10 nm bandpass) • Eu Ab emission: 615 nm (10 nm bandpass) • Emission ratio=665 nm (tracer)/615 nm (Eu Ab) • The higher the binding affinity of compound to ALK5 kinase is, the less the emission ratio is.
(In TR-FRET formats the signal depends on donor and acceptor labels being close together.)

In another assay the test system is TGF-β signaling. The assay can be described thus: Assay for evaluating cellular inhibition of TGF-β signaling, 4T1 (SBE-luc2P) luciferase reporter. The class given is cell-based. To be noted: Mus musculus, 4T1, 4T1 (SBE-luc2P) transient pool, 0.2% FBS, 2 h pre-treatment, TGF-β1 2 ng/mL 24 h; read-out: IC50 4T1 Cell. In outline:
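Luminescence from SMAD-binding-element luciferase was measured after 24 h of 2 ng/mL TGF-β1 at 37 °C, following 2 h compound pre-treatment. HEK293 stable reporter cells were used at 2.5×10^4/well in 0.5% FBS (~80% confluent); the 4T1 SBE-luc2P transient pool at 6×10^3/well in 0.2% FBS (~60% confluent).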
For orientation: Reporter assays use an easily measured gene product as a stand-in for the process of interest.

For orientation: IC50 means the concentration at which inhibition is half-maximal.

For `CC(C)(O)c1cc(Nc2cc(Oc3sc(C4CC4)nc3-c3ccccc3)ccn2)ccn1` [A-120, 2-(4-((4-((2-Cyclopropyl-4-phenylthiazol-5-yl)oxy)pyridin-2-yl)amino)pyridin-2-yl)propan-2-ol], the IC50 on ALK5 kinase is under 0.1 µM; in the assay on TGF-β signaling, over 0.1 µM.

For the compound `CS(=O)(=O)Nc1cccc(Nc2cc(Oc3sc(N)nc3-c3ccccc3)ccn2)c1` [A-14, N-(3-((4-((2-Amino-4-phenylthiazol-5-yl)oxy)pyridin-2-yl)amino)phenyl)methanesulfonamide], the 50% inhibitory concentration (IC50) on ALK5 kinase and in the assay with TGF-β signaling was under 0.1 µM in each case.

`Cc1nc(-c2ccccc2)c(Oc2ccnc(Nc3cccc(C(C)(C)O)c3)c2)s1` [A-61, 2-(3-((4-((2-Methyl-4-phenylthiazol-5-yl)oxy)pyridin-2-yl)amino)phenyl)propan-2-ol]: the half-inhibitory concentration (IC50) at ALK5 kinase and in the assay on TGF-β signaling was under 0.1 µM each time.

Take `CCc1nc(-c2ccccc2)c(Oc2ccnc(Nc3ccnc(C(C)(C)O)c3)c2)s1` [A-186, 2-(4-((4-((2-Ethyl-4-phenylthiazol-5-yl)oxy)pyridin-2-yl)amino)pyridin-2-yl)propan-2-ol]: the IC50 at ALK5 kinase and in the assay with TGF-β signaling was under 0.1 µM throughout.

Consider `NS(=O)(=O)c1cccc(Nc2cc(Oc3sc(C4CC4)nc3-c3ccccc3)ccn2)c1` [A-116, 3-((4-((2-Cyclopropyl-4-phenylthiazol-5-yl)oxy)pyridin-2-yl)amino)benzenesulfonamide], for which the half-maximal inhibitory concentration (IC50) on ALK5 kinase and in the assay with TGF-β signaling was under 0.1 µM throughout.

As to `CCc1nc(-c2ccccc2)c(Oc2ccnc(Nc3ccc(C(=O)O)cc3)c2)s1` [A-195, 4-((4-((2-Ethyl-4-phenylthiazol-5-yl)oxy)pyridin-2-yl)amino)benzoic acid], the half-maximal inhibitory concentration (IC50) on ALK5 kinase and in the assay on TGF-β signaling was under 0.1 µM in each case.

In the case of `Nc1nc(-c2ccccc2)c(Oc2ccnc(Nc3cccc(C(=O)O)c3)c2)s1` [A-40, 3-((4-((2-Amino-4-phenylthiazol-5-yl)oxy)pyridin-2-yl)amino)benzoic acid], the results for the IC50 at ALK5 kinase and in the assay on TGF-β signaling were under 0.1 µM and over 0.1 µM, respectively.

Regarding `COc1nc(-c2ccccc2)c(Oc2ccnc(Nc3cccc(C(N)=O)c3)c2)s1` [A-143, 3-((4-((2-Methoxy-4-phenylthiazol-5-yl)oxy)pyridin-2-yl)amino)benzamide], the half-maximal inhibitory concentration (IC50) is under 0.1 µM at ALK5 kinase and over 0.1 µM with TGF-β signaling.

As for `Cc1nc(-c2ccccc2)c(Oc2ccnc(Nc3cccc(C(C)(C)C(=O)O)c3)c2)s1` [A-66, 2-Methyl-2-(3-((4-((2-methyl-4-phenylthiazol-5-yl)oxy)pyridin-2-yl)amino)phenyl)propanoic acid], the concentration for half-maximal inhibition (IC50) on ALK5 kinase and in the assay with TGF-β signaling was under 0.1 µM each time.

With `Cc1nc(-c2ccccc2)c(Oc2ccnc(Nc3cccc(S(N)(=O)=O)c3)c2)s1` [A-58, 3-((4-((2-Methyl-4-phenylthiazol-5-yl)oxy)pyridin-2-yl)amino)benzenesulfonamide], the concentration for half-maximal inhibition (IC50) on ALK5 kinase and with TGF-β signaling was under 0.1 µM throughout.

On to `CC(C)c1nc(-c2ccccc2)c(Oc2ccnc(Nc3ccc(C(=O)O)cc3)c2)s1` [A-231, 4-((4-((2-Isopropyl-4-phenylthiazol-5-yl)oxy)pyridin-2-yl)amino)benzoic acid], for which the IC50 on ALK5 kinase and in the assay with TGF-β signaling was under 0.1 µM throughout.

Turning to `Cc1nc(-c2ccccc2)c(Oc2ccnc(Nc3cccc(NS(C)(=O)=O)c3)c2)s1` [A-71, N-(3-((4-((2-Methyl-4-phenylthiazol-5-yl)oxy)pyridin-2-yl)amino)phenyl)methanesulfonamide], the half-maximal inhibitory concentration (IC50) at ALK5 kinase and in the assay with TGF-β signaling was under 0.1 µM in each case.

Take `Cc1cccc(-c2nc(C)sc2Oc2ccnc(Nc3cccc(S(N)(=O)=O)c3)c2)n1` [A-303, 3-((4-((2-Methyl-4-(6-methylpyridin-2-yl)thiazol-5-yl)oxy)pyridin-2-yl)amino)benzenesulfonamide]: the IC50 on ALK5 kinase and in the assay on TGF-β signaling was under 0.1 µM each time.

`CN(C)c1nc(-c2ccccc2)c(Oc2ccnc(Nc3cccc(C(=O)O)c3)c2)s1` [A-167, 3-((4-((2-(Dimethylamino)-4-phenylthiazol-5-yl)oxy)pyridin-2-yl)amino)benzoic acid]: the IC50 at ALK5 kinase is under 0.1 µM; in the assay on TGF-β signaling it was over 0.1 µM.

Consider `CCS(=O)(=O)Nc1cccc(Nc2cc(Oc3sc(C4CC4)nc3-c3ccccc3)ccn2)c1` [A-122, N-(3-((4-((2-Cyclopropyl-4-phenylthiazol-5-yl)oxy)pyridin-2-yl)amino)phenyl)ethanesulfonamide], for which the concentration for half-maximal inhibition (IC50) on ALK5 kinase and in the assay on TGF-β signaling was under 0.1 µM throughout.

With `NC(=O)c1cccc(Nc2cc(Oc3sc(Br)nc3-c3ccccc3)ccn2)c1` [A-172, 3-((4-((2-Bromo-4-phenylthiazol-5-yl)oxy)pyridin-2-yl)amino)benzamide], the IC50 at ALK5 kinase and in the assay with TGF-β signaling was over 0.1 µM each time.

For `CC(C)c1nc(-c2ccccc2)c(Oc2ccnc(Nc3cccc(C(N)=O)c3)c2)s1` [A-220, 3-((4-((2-Isopropyl-4-phenylthiazol-5-yl)oxy)pyridin-2-yl)amino)benzamide], the IC50 was under 0.1 µM on ALK5 kinase and over 0.1 µM in the assay on TGF-β signaling.

As for `O=C(O)c1ccc(Nc2cc(Oc3sc(C4CCCC4)nc3-c3ccccc3)ccn2)nc1` [A-174, 6-((4-((2-Cyclopentyl-4-phenylthiazol-5-yl)oxy)pyridin-2-yl)amino)nicotinic acid], the IC50 on ALK5 kinase is under 0.1 µM; with TGF-β signaling it was over 0.1 µM.

In the case of `CNc1nc(-c2ccccc2)c(Oc2ccnc(Nc3ccc(C(N)=O)cc3)c2)s1` [A-310, 4-((4-((2-(Methylamino)-4-phenylthiazol-5-yl)oxy)pyridin-2-yl)amino)benzamide], the values for the IC50 at ALK5 kinase and in the assay on TGF-β signaling were under 0.1 µM and over 0.1 µM, respectively.

In the case of `COc1nc(-c2ccccc2)c(Oc2ccnc(Nc3cccc(S(N)(=O)=O)c3)c2)s1` [A-142, 3-((4-((2-Methoxy-4-phenylthiazol-5-yl)oxy)pyridin-2-yl)amino)benzenesulfonamide], the IC50 on ALK5 kinase is under 0.1 µM; in the assay on TGF-β signaling, over 0.1 µM.

Consider `Cc1nc(-c2ccccc2)c(Oc2ccnc(Nc3cccc(C(=O)O)c3)c2)s1` [A-109, 3-((4-((2-Methyl-4-phenylthiazol-5-yl)oxy)pyridin-2-yl)amino)benzoic acid], for which the IC50 at ALK5 kinase was under 0.1 µM; with TGF-β signaling it was over 0.1 µM.

In the case of `CCc1nc(-c2ccccc2)c(Oc2ccnc(Nc3ccc(C(C)(C)O)nc3)c2)s1` [A-187, 2-(5-((4-((2-Ethyl-4-phenylthiazol-5-yl)oxy)pyridin-2-yl)amino)pyridin-2-yl)propan-2-ol], the figures for the IC50 at ALK5 kinase and with TGF-β signaling were under 0.1 µM and over 0.1 µM, respectively.

Take `CC(C)c1nc(-c2ccccc2)c(Oc2ccnc(Nc3ccc(C(N)=O)cn3)c2)s1` [A-227, 6-((4-((2-Isopropyl-4-phenylthiazol-5-yl)oxy)pyridin-2-yl)amino)nicotinamide]: the IC50 at ALK5 kinase and in the assay on TGF-β signaling was under 0.1 µM in each case.

Turning to `O=C(O)c1ccc(Nc2cc(Oc3sc(C4CCCCC4)nc3-c3ccccc3)ccn2)cc1` [A-179, 4-((4-((2-Cyclohexyl-4-phenylthiazol-5-yl)oxy)pyridin-2-yl)amino)benzoic acid], the 50% inhibitory concentration (IC50) at ALK5 kinase and in the assay with TGF-β signaling was over 0.1 µM in each case.

For the compound `CNC(=O)c1ccc(Nc2cc(Oc3sc(C4CC4)nc3-c3ccccc3)ccn2)cc1` [A-126, 4-((4-((2-Cyclopropyl-4-phenylthiazol-5-yl)oxy)pyridin-2-yl)amino)-N-methylbenzamide], the 50% inhibitory concentration (IC50) on ALK5 kinase and in the assay on TGF-β signaling was under 0.1 µM in each case.

For `CC(C)c1nc(-c2ccccc2)c(Oc2ccnc(Nc3ccnc(C(C)(C)O)c3)c2)s1` [A-223, 2-(4-((4-((2-Isopropyl-4-phenylthiazol-5-yl)oxy)pyridin-2-yl)amino)pyridin-2-yl)propan-2-ol], the values for the half-maximal inhibitory concentration (IC50) on ALK5 kinase and in the assay on TGF-β signaling were under 0.1 µM and over 0.1 µM, respectively.

Take `CCc1nc(-c2ccccc2)c(Oc2ccnc(Nc3cccc(C(C)(C)O)c3)c2)s1` [A-182, 2-(3-((4-((2-Ethyl-4-phenylthiazol-5-yl)oxy)pyridin-2-yl)amino)phenyl)propan-2-ol]: the IC50 on ALK5 kinase is under 0.1 µM; in the assay with TGF-β signaling, over 0.1 µM.

Regarding `CNc1nc(-c2ccc3ccccc3c2)c(Oc2ccnc(Nc3cccc(S(N)(=O)=O)c3)c2)s1` [A-233, 3-((4-((2-(Methylamino)-4-(naphthalen-2-yl)thiazol-5-yl)oxy)pyridin-2-yl)amino)benzenesulfonamide], the half-inhibitory concentration (IC50) at ALK5 kinase and in the assay on TGF-β signaling was over 0.1 µM each time.
